Laboratory results published in US20040266802A1, “Tricyclic analgesics” (priority 1999, published 2004).
Where a name gives a salt, the structure may show the parent alone. Read-outs that look alike come from different tables or passages of the source.

How the values were obtained:
Na+ channels = assay: 22Na+ influx into SK-N-SH neuroblastoma cells under veratridine stimulation; format: cell-based
[1] = test system: Chronic Hyperalgesia Induced by PGE2 in Rats; assay: Analgesic activity on chronic hyperalgesia induced by PGE2 in rats (Randall and Selitto test); format: in vivo; settings: Rattus norvegicus, sc, 0.5 h; Sprague-Dawley rats, 10 mg/kg s.c., 30 min before measuring the pain threshold, compared with vehicle controls
Protocol: Analgesic Activity on Chronic Hyperalgesia Induced by PGE2 in Rats
The test consists in determining the analgesic effect of the test compound in rats by the Randall and Selitto test, in which chronic hyperalgesia has been triggered by intraplantar injection of PGE2 over 4 days into a leg, according to a protocol adapted from Nakamura-Craig et al (Pain, 63: 33-37. 1995).
The study is carried out on batches of 120-140 g Sprague-Dawley rats to which 100 ng of PGE2 is administered in a volume of 100 μl by the intraplantar route, for 4 consecutive days twice a day; this causes chronic hyperalgesia in the leg from the 5th day, for at least one week. On the day of the test, in the morning, the threshold of reaction to pain is checked by the Randall and Selitto test, and animals whose threshold is ψ100 arbitrarily defined units are selected. In the afternoon, the measurement is repeated after prior administration by the s.c. route of a solution of the test compound; this administration is carried out 30 min before measuring the pain threshold. For each batch, the analgesic activity (%) is calculated from the means of the thresholds measured before and after treatment, as compared with that of the control animals, who received only the vehicle.

Na+ channel = settings: rat cerebral cortex synaptosomes, 10 nM [3H]batrachotoxin, 90 min at 25° C.; read-out: [3H] BTX assay: Na+ channel binding Ki
[2] = human SK-N-SH cells, veratridine-induced influx, 10 min at 37° C.; read-out: 22Na influx IC50

`O=C1c2ccccc2CCC12CCN(C/C=C/c1ccccc1)CC2` [Example 7, 1′-cinnamyl-3,4-Dihydro-1-oxospiro[naphthalene-2(1H),4′-piperidine]] showed an IC50 (Na+ channels; [2]) of 940 nM and an inhibition in vivo at 10 mg/kg [1] of 57%.

`O=C1c2ccccc2CCC12CCN(CC1CCCCC1)CC2` (as salt: hydrochloride) [Example 4, 1′-cyclohexylmethyl-3,4-Dihydro-1-oxospiro[naphthalene-2(1H),4′-piperidine]] showed a melting point of 265 °C.

With `COc1cccc2c1CCC1(CCN(CC3CC3)CC1)C2=O` (as salt: hydrochloride) [Example 11, 1′-(cyclopropylmethyl)-3,4-Dihydro-5-methoxy-1-oxospiro[naphthalene-2(1H),4′-piperidine]] the melting point was 244 °C.

With `Cc1cc(C)c2c(c1)C(=O)C1(CC2)CCN(CC2CC2)CC1` (as salt: hydrochloride) [Example 9, 1′-(cyclopropylmethyl)-3,4-Dihydro-5,7-dimethyl-1-oxospiro[naphthalene-2(1H),4′-piperidine]] the melting point was over 260 °C.

Compound `O=C1c2ccccc2CCC12CCN(C/C=C/c1ccccc1)CC2` (as salt: hydrochloride) [Example 7, 1′-cinnamyl-3,4-Dihydro-1-oxospiro[naphthalene-2(1H),4′-piperidine]] has a melting point of 228 °C.

With `COc1cccc2c1CCC1(CCN(CC3CCC3)CC1)C2=O` [Example 36] the Ki (Na+ channel) was 475 nM, the IC50 (Na+ channels; [2]) was 3400 nM and the inhibition in vivo at 10 mg/kg [1] was 51%.

In the case of `COc1ccc2c(c1)CCC1(CCN(CC3CC3)CC1)C2=O` (as salt: hydrochloride) [Example 10, 1′-(cyclopropylmethyl)-3,4-Dihydro-6-methoxy-1-oxospiro[naphthalene-2(1H),4′-piperidine]], the melting point is reported as over 255 °C.

`COc1ccc2c(c1)C(=O)C1(CC2)CCN(CCC2CC2)CC1` [Example 49] gave a Ki (Na+ channel) of 2180 nM, an IC50 (Na+ channels; [2]) of 7600 nM and an inhibition in vivo at 10 mg/kg [1] of 38%.

With `O=C1c2ccccc2CCC12CCN(CCC1CC1)CC2` [Example 6, 1′-cyclopropylethyl-3,4-Dihydro-1-oxospiro[naphthalene-2(1H),4′-piperidine]] the IC50 (Na+ channels; [2]) was 3400 nM and the inhibition in vivo at 10 mg/kg [1] was 67%.

With `O=C1c2ccccc2CCC12CCN(CC1CC1)CC2` [Example 2, 1′-cyclopropylmethyl-3,4-Dihydro-1-oxospiro[naphthalene-2(1H),4′-piperidine]] the IC50 (Na+ channels; [2]) was 10700 nM and the inhibition in vivo at 10 mg/kg [1] was 49%.

In the case of `COc1ccc2c(c1)CCC1(CCN(CCC3CC3)CC1)C2=O` [Example 42], the IC50 (Na+ channels; [2]) is reported as 4300 nM and the inhibition in vivo at 10 mg/kg [1] is reported as 46%.

Work on `COc1ccc2c(c1)CCC1(CCNCC1)C2=O` [Example 70, 3.4-Dihydro-6-methoxy-1-oxospiro[naphthalene-2(1H),4′-piperidine]] yielded an inhibition in vivo at 10 mg/kg [1] of 46%.

With `O=C1c2ccccc2CCC12CCN(CCC1CC1)CC2` (as salt: hydrochloride) [Example 6, 1′-cyclopropylethyl-3,4-Dihydro-1-oxospiro[naphthalene-2(1H),4′-piperidine]] the melting point was 244 °C.

With `O=C1c2ccccc2CCC12CCN(CCC(c1ccccc1)c1ccccc1)CC2` (as salt: hydrochloride) [Example 8, 1′-(3,3-diphenylpropyl)-3,4-Dihydro-1-oxospiro[naphthalene-2(11H),4′-piperidine]] the melting point was 257 °C.

In the case of `COc1ccc2c(c1)CCC1(CCN(CC3CC3)CC1)C2=O` [Example 10, 1′-(cyclopropylmethyl)-3,4-Dihydro-6-methoxy-1-oxospiro[naphthalene-2(1H),4′-piperidine]], the IC50 (Na+ channels; [2]) is reported as 30000 nM and the inhibition in vivo at 10 mg/kg [1] is reported as 100%.

With `O=C1c2ccccc2CCC12CCNCC2` (as salt: hydrochloride) the melting point was 235 °C.

`O=C1c2ccccc2CCC12CCN(CC1CC1)CC2` (as salt: hydrochloride) [Example 2, 1′-cyclopropylmethyl-3,4-Dihydro-1-oxospiro[naphthalene-2(1H),4′-piperidine]] gave a melting point of 243 °C.

For `O=C1c2ccccc2CCC12CCN(CCCc1ccccc1)CC2` [Example 33], the Ki (Na+ channel) was 291 nM, the IC50 (Na+ channels; read-out: 22Na influx IC50; human SK-N-SH cells, veratridine-induced influx, 10 min at 37° C.) was 1200 nM and the inhibition in vivo at 10 mg/kg [1] was 81%.

For `COc1ccc2c(c1)CCC1(CCN(CCCc3ccccc3)CC1)C2=O` [Example 47], the IC50 (Na+ channels; [2]) was 600 nM and the inhibition in vivo at 10 mg/kg [1] was 66%.

With `O=C1c2ccccc2CCC12CCN(CC1CCC1)CC2` (as salt: hydrochloride) [Example 3, 1′-cyclobutylmethyl-3,4-Dihydro-1-oxospiro[naphthalene-2(1H),4′-piperidine]] the melting point was 235 °C.

With `O=C1c2ccccc2CCC12CCN(CCc1ccccc1)CC2` (as salt: hydrochloride) the melting point was over 275 °C.

In the case of `COc1ccc2c(c1)CCC1(CCN(CC3CCC3)CC1)C2=O` [Example 43], the IC50 (Na+ channels; [2]) is reported as 6000 nM and the inhibition in vivo at 10 mg/kg [1] is reported as 39%.

`O=C1c2ccccc2CCC12CCN(CCC(c1ccccc1)c1ccccc1)CC2` [Example 8, 1′-(3,3-diphenylpropyl)-3,4-Dihydro-1-oxospiro[naphthalene-2(11H),4′-piperidine]] showed an IC50 (Na+ channels; [2]) of 970 nM and an inhibition in vivo at 10 mg/kg [1] of 47%.
